This note sets out measurements from ChEMBL document CHEMBL1275506, “Expanded-spectrum beta-lactamase PER-1 in an environmental Aeromonas media isolate from Switzerland” (2008).

Type in all cases: functional
Assay [1] concerns Aeromonas sp. Kind of assay: Antibacterial activity against Aeromonas sp. isolate A72 by Etest.
The test system of assay [2] is Escherichia coli. Kind of assay: Antibacterial activity against Escherichia coli J53 harboring plasmid pAM carrying beta-lactamase PER-1 by Etest.
In assay [3] the test system is Escherichia coli. Kind of assay: Antibacterial activity against Escherichia coli J53 by Etest.
Assay [4] concerns Aeromonas sp. Kind of assay: Antibacterial activity against Aeromonas sp. isolate A72 by Etest in presence of clavulanic acid.
Assay [5] has as its system Escherichia coli. Kind of assay: Antibacterial activity against Escherichia coli J53 by Etest in presence of clavulanic acid.
Assay [6] has as its system Escherichia coli. Kind of assay: Antibacterial activity against Escherichia coli J53 harboring plasmid pAM carrying beta-lactamase PER-1 by Etest in presence of clavulanic acid.

Converted amounts (≈) assume the structure as drawn.

As to `CO/N=C(\C(=O)N[C@@H]1C(=O)N2C(C(=O)[O-])=C(C[N+]3(C)CCCC3)CS[C@H]12)c1csc(N)n1` [CEFEPIME], the values for the MIC in assay [1] and in assay [2] were 4 µg/mL (≈ 8.32 µM) and 8 µg/mL (≈ 16.6 µM), respectively.
For `C[C@@H](O)[C@H]1C(=O)N2C(C(=O)O)=C(SCCNC=N)C[C@H]12` [IMIPENEM ANHYDROUS], in that order: 0.25 µg/mL (≈ 0.835 µM) and 0.25 µg/mL (≈ 0.835 µM).
Turning to `CC(=O)OCC1=C(C(=O)O)N2C(=O)[C@@H](NC(=O)Cc3cccs3)[C@H]2SC1` [CEPHALOTHIN], the figures for the MIC in assay [1], in assay [2] and in assay [3] were above 64 µg/mL, above 64 µg/mL and 8 µg/mL (≈ 20.2 µM), respectively.
Regarding `CC(C)(O/N=C(\C(=O)N[C@@H]1C(=O)N2C(C(=O)[O-])=C(C[n+]3ccccc3)CS[C@H]12)c1csc(N)n1)C(=O)O` [CEFTAZIDIME], the MIC was above 256 µg/mL in assay [1], above 256 µg/mL in assay [2] and 0.06 µg/mL (≈ 0.11 µM) in assay [3].
For the compound `CO/N=C(\C(=O)N[C@@H]1C(=O)N2C(C(=O)O)=C(COC(C)=O)CS[C@H]12)c1csc(N)n1` [CEFOTAXIME], the MIC is above 32 µg/mL in assay [1], above 32 µg/mL in assay [2] and 0.06 µg/mL (≈ 0.132 µM) in assay [3].
Take `CC1(C)S[C@@H]2[C@H](NC(=O)[C@H](C(=O)O)c3ccsc3)C(=O)N2[C@H]1C(=O)O` [TICARCILLIN]: the MIC in assay [4] is 128 µg/mL; in assay [1], above 256 µg/mL; in assay [5], 4 µg/mL; in assay [2], above 256 µg/mL; in assay [6], 8 µg/mL; in assay [3] it was 4 µg/mL (≈ 10.4 µM).
Take `CO[C@@]1(NC(=O)Cc2cccs2)C(=O)N2C(C(=O)O)=C(COC(N)=O)CS[C@@H]21` [CEFOXITIN]: the MIC in assay [1], in assay [2] and in assay [3] was 2 µg/mL (≈ 4.68 µM) in each case.
As to `CC1(C)S[C@@H]2[C@H](NC(=O)[C@H](N)c3ccc(O)cc3)C(=O)N2[C@H]1C(=O)O` [AMOXICILLIN], the minimum inhibitory concentration (MIC) in assay [4] was 8 µg/mL; in assay [1] it was above 256 µg/mL; in assay [5] it was 4 µg/mL; in assay [2], above 256 µg/mL; in assay [6] it was 4 µg/mL; in assay [3], 4 µg/mL (≈ 10.9 µM).

The MIC is the lowest concentration found to suppress growth.
